Reference: paper PMC10442441, “Characterization of two O-methyltransferases involved in the biosynthesis of O-methylated catechins in tea plant” (Nature Communications, 2023)
Like-named read-outs stand apart in the source and are kept apart here.

Target: T1, CsFAOMT1 (Camellia sinensis, UniProt A0A7J7GXF2)
T1 construct: gene HYC85_015345
Conditions: 1.0 mM Mg2+, pH 7.4, 40 °C, exact value in supplement

T1 sequence (A0A7J7GXF2 entry or part of it): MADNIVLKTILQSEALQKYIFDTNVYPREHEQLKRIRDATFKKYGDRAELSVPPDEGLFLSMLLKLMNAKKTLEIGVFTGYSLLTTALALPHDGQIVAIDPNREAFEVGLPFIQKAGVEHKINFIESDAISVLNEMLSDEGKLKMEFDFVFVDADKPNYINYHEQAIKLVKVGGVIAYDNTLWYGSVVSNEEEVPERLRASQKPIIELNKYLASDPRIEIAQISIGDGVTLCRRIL

| SMILES | Km (saturating SAM) [µM] | Km (1 mM SAM) [µM] |
| --- | --- | --- |
| COC(=O)c1cc(O)c(O)c(O)c1 [methyl gallate] | < 4 | – |
| O=c1c(O)c(-c2cc(O)c(O)c(O)c2)oc2cc(O)cc(O)c12 [myricetin] | < 4 | – |
| O=c1c(O[C@@H]2O[C@H](CO)[C@@H](O)[C@H](O)[C@H]2O)c(-c2ccc(O)c(O)c2)oc2cc(O)cc(O)c12 [isoquercitrin] | – | > 2500 |
